Measured values reported in paper PMC12238837, “DCAF16‐Based Covalent Molecular Glues for Targeted Protein Degradation of Histone Deacetylases” (Archiv Der Pharmazie, 2025).
Where two headings read alike, the source gives them in different places. Blank lines part the entries; values can stand above or below the compound they belong to.

Legend:
HDAC1 [1] = target: T1, HDAC1 (Homo sapiens, UniProt Q13547); assay: HDAC enzyme inhibition assay (ZMAL substrate), HDAC1; type: biochemical; set-up: purchased BPS Bioscience 50051; conditions: n = 2, mean ± SD
Method: (§1) The total assay volume of 50 μL (HDAC2/3/6 max. 1% DMSO; HDAC1 max. 5% DMSO) was incubated at 37°C for 90 min. Subsequently, 50 μL of trypsin (0.4 mg/mL) in trypsin buffer (50 mM Tris−HCl, pH 8.0, 100 mM NaCl) was added, followed by an additional 30 min of incubation at 37°C. Fluorescence (excitation λ = 355 nm, emission λ = 460 nm) was measured using a FLUOstar OPTIMA microplate reader. The IC50 was determined by plotting dose–response curves and performing nonlinear regression using GraphPad Prism.
as §1, with “by” for “by an”, “dose response” for “dose–response”, “Prism.^[3-6]” for “Prism.”

HDAC3 = target: T2, HDAC3 (Homo sapiens, UniProt O15379); assay: HDAC3 degradation, western blot in MM.1S cells; type: cell-based; conditions: MM.1S cells, 1, 10, 25 μM
T2 construct: endogenous in cells; host or cells: MM.1S
Method: (§2) Subsequently, degrader 10a was investigated at various concentrations (1, 10, and 25 µM) for degradation effects on different HDAC isoforms, including HDAC2, HDAC3, and HDAC4. […] In detail, 10a induced a modest degradation of HDAC2 (D max = 46% at 25 μM), which may be attributed to the high structural similarity between HDAC1 and HDAC2, particularly in their catalytic domains.
(§3) The MM.1S was obtained from ATCC (Manassas, VA, USA). MM.1S cells were cultivated in RPMI 1640 medium supplemented with 10% FBS, 100 IU/mL penicillin, 0.1 mg/mL streptomycin, and 1 mM sodium pyruvate at 37°C in a 5% CO2 atmosphere.
(§4) The MM.1S cells (3 × 10^6 cells/mL) were seeded into cell culture flasks and, after 72 h, treated with the indicated concentration of compound or DMSO for the given time. Cell lysis was performed with Cell Extraction Buffer and the addition of Halt Protease Inhibitor Cocktail and phenylmethanesulfonyl fluoride. Protein content was determined by Pierce BCA Protein Assay Kit. Samples were denatured by Laemmli 2× Concentrate, and Precision Plus Protein Unstained Standard was used as a molecular weight marker in all cases. […] The ChemiDoc XRS+ System was used for detection, and Image Lab Software 6.1 (Bio‐Rad, Hercules, CA, USA) for quantification.

HDAC4 = target: T3, HDAC4 (Homo sapiens, UniProt P56524); assay: HDAC4 degradation, western blot in MM.1S cells; type: cell-based; conditions: MM.1S cells, 1, 10, 25 μM
T3 construct: HDAC2, HDAC3, and HDAC4 levels were detected by immunoblot analysis; endogenous in cells; host or cells: MM.1S
Method: as §2, §3, §4

MM.1S cells [2] = assay: CellTiter-Glo cell viability assay; type: cell-based; conditions: Homo sapiens, MM1.S, 72 h, read-out: IC50 cell viability
Method: The MM.1S was obtained from ATCC (Manassas, VA, USA).
(§5) For this purpose, the dilution series was prepared at 200× concentration in DMSO and then further diluted to 10× concentration in medium. The final DMSO concentration was 0.5%. The toxicity of compounds was assessed after 72 h using the CellTiter‐Glo 2.0 cell viability assay. Luminescence was then measured, and the IC50 was determined by plotting dose–response curves and performing nonlinear regression using GraphPad Prism.
as §5, with “series were” for “series was”, “the CellTiter-Glo” for “the CellTiter‐Glo”, “plotting dose-response” for “plotting dose–response”, “GraphPad Prism.^[1]” for “GraphPad Prism.”

HDAC2 [3] = target: T4, HDAC2 (Homo sapiens, UniProt Q92769); assay: HDAC enzyme inhibition assay (ZMAL substrate), HDAC2; type: biochemical; set-up: purchased BPS Bioscience 50052; conditions: n = 2, mean ± SD
Method: as §1
as §1, with “by” for “by an”, “dose response” for “dose–response”, “Prism.^[3-6]” for “Prism.”

MM.1S cells [4] = assay: Annexin V-FITC/PI apoptosis assay, flow cytometry; type: cell-based; conditions: 10 μM, 48 h
Method: The percentage of cells that were annexin V‐positive but PI‐negative was considered as early apoptotic, whereas the percentage of cells that were both annexin V‐ and PI‐positive was considered as late apoptotic. Data are presented as mean ± standard deviation (n = 2 biological replicates, each performed in duplicates). Statistical analysis was performed by using one‐way ANOVA in GraphPad Prism 8. Statistical significance was indicated with asterisks (****p ≤ 0.0001).
MM.1S cells (3 × 10^5 cells/well) were seeded in 24‐well plates and treated with the indicated concentration of compound or DMSO for 48 h under cell culture conditions. Subsequently, cells were washed with cell staining buffer (HEPES 0.1 M, NaCl 1.4 M, CaCl2·3H2O 25 mM), resuspended in 300 µL, and 150 µL was transferred in a 96‐well plate.

Human recombinant HDAC6 = target: T5, Human recombinant HDAC6 (Homo sapiens, UniProt Q9UBN7); assay: HDAC enzyme inhibition assay (ZMAL substrate), HDAC6; type: biochemical; conditions: n = 2, mean ± SD
T5 construct: purchased BPS Bioscience 50006
T5 sequence (Q9UBN7 1-1215): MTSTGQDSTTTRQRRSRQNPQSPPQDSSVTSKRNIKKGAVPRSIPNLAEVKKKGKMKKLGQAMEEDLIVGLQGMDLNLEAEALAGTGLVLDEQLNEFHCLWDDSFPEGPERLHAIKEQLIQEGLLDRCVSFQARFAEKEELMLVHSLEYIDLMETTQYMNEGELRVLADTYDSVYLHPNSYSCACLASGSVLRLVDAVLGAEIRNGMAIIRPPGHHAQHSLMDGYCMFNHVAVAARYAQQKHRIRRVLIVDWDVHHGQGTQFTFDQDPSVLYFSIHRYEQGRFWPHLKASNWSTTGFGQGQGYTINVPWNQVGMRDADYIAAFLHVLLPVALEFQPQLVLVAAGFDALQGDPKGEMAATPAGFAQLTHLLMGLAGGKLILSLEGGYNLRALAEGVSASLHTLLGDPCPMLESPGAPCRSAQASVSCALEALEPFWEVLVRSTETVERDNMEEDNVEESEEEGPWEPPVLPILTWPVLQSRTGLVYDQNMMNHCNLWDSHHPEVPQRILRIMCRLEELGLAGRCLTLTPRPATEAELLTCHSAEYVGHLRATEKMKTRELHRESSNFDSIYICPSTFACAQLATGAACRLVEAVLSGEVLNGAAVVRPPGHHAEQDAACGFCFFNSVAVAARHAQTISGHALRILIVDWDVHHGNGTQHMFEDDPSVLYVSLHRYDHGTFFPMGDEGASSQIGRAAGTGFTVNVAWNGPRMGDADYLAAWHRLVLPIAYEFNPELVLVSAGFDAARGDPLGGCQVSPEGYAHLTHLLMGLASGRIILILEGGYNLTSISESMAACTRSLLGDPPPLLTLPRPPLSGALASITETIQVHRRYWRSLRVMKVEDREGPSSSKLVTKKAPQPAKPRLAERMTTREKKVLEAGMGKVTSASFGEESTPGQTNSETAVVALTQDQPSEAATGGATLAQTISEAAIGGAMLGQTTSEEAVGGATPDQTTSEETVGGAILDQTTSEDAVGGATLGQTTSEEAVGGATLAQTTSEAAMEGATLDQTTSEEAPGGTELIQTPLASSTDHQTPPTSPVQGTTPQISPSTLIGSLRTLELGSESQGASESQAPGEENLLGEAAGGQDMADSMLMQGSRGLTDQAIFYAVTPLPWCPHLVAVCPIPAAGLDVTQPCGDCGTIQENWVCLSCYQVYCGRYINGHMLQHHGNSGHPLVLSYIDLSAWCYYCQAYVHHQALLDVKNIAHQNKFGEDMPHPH
Method: as §1
as §1, with “by” for “by an”, “dose response” for “dose–response”, “Prism.^[3-6]” for “Prism.”

[5] = test system: acetylated histone H3 (indicator of reduced HDAC1‐3 activity); assay: Cellular target engagement: immunoblot of acetylated histone H3; type: cell-based; conditions: MM.1S cells, 10 µM, 24 h
Method: (§6) Immunoblot analysis of acetylated histone H3 (A) and α‐tubulin (B) in MM.1S cell lysates after treatment with the indicated compounds (10 µM) or vehicle (DMSO) for 24 h. Representative images from a total of n = 2 replicates.
(§7) The MM.1S cells (3 × 10^6 cells/mL) were seeded into cell culture flasks and, after 72 h, treated with the indicated concentration of compound or DMSO for the given time. Cell lysis was performed with Cell Extraction Buffer and the addition of Halt Protease Inhibitor Cocktail and phenylmethanesulfonyl fluoride. Protein content was determined by Pierce BCA Protein Assay Kit. Samples were denatured by Laemmli 2× Concentrate, and Precision Plus Protein Unstained Standard was used as a molecular weight marker in all cases. SDS‐PAGE was performed with 10% Mini‐PROTEAN TGX Stain‐Free Gel (Catalog# 458035, Bio‐Rad, Hercules, CA, USA) at 200 V for 50 min (Catalog# 458035, Bio‐Rad). Afterwards, proteins were transferred with the Trans‐Blot Turbo Transfer System to Immobilon‐FL PVDF membranes at 1.0 A for 30 min and incubated with 5% milk‐powder solution for 1 h at room temperature under slight agitation. Subsequently, the membranes were incubated with anti‐HDAC1 (Catalog# 5356S, Cell Signaling Technology, Denver, MA, USA), anti‐HDAC2 (Catalog# 9959S, Cell Signaling Technology, Denver, MA, USA), anti‐HDAC3 (Catalog# 85057S, Cell Signaling Technology, Denver, MA, USA), anti‐HDAC4 (Catalog# 7628S, Cell Signaling Technology, Denver, MA, USA), anti‐HDAC6 (Catalog# 7558S, Cell Signaling Technology, Denver, MA, USA), anti‐acetyl‐histone H3 (Catalog# 9677S, Cell Signaling Technology, Denver, MA, USA), anti‐acetyl‐α‐tubulin (Catalog# 5335, Cell Signaling Technology, Denver, MA, USA), or anti‐GAPDH (Catalog# T0004, Affinity Biosciences, Cincinnati, OH, USA) antibody solutions in 1:1000–1:20000 dilutions at room temperature under slight agitation for 1 h, then put membranes at 4°C for overnight. […] The ChemiDoc XRS+ System was used for detection, and Image Lab Software 6.1 (Bio‐Rad, Hercules, CA, USA) for quantification.

[6] = target: T6, Human recombinant HDAC3/NcoR2 (Homo sapiens, UniProt O15379); assay: HDAC enzyme inhibition assay (ZMAL substrate), HDAC3; type: biochemical; conditions: n = 2, mean ± SD
T6 construct: purchased BPS Bioscience 50003
Method: as §1
as §1, with “by” for “by an”, “dose response” for “dose–response”, “Prism.^[3-6]” for “Prism.”

HDAC2 [7] = target: T4, HDAC2; assay: HDAC2 degradation, western blot in MM.1S cells; type: cell-based; set-up: endogenous in cells; host or cells: MM.1S
Method: as §2, §3
(§8) The MM.1S cells (3 × 10^6 cells/mL) were seeded into cell culture flasks and, after 72 h, treated with the indicated concentration of compound or DMSO for the given time. Cell lysis was performed with Cell Extraction Buffer and the addition of Halt Protease Inhibitor Cocktail and phenylmethanesulfonyl fluoride. Protein content was determined by Pierce BCA Protein Assay Kit. Samples were denatured by Laemmli 2× Concentrate, and Precision Plus Protein Unstained Standard was used as a molecular weight marker in all cases. SDS‐PAGE was performed with 10% Mini‐PROTEAN TGX Stain‐Free Gel (Catalog# 458035, Bio‐Rad, Hercules, CA, USA) at 200 V for 50 min (Catalog# 458035, Bio‐Rad). Afterwards, proteins were transferred with the Trans‐Blot Turbo Transfer System to Immobilon‐FL PVDF membranes at 1.0 A for 30 min and incubated with 5% milk‐powder solution for 1 h at room temperature under slight agitation. […] The ChemiDoc XRS+ System was used for detection, and Image Lab Software 6.1 (Bio‐Rad, Hercules, CA, USA) for quantification.

HDAC1 [8] = target: T1, HDAC1; assay: HDAC1 degradation, western blot in MM.1S cells; type: cell-based; set-up: endogenous in cells; host or cells: MM.1S; conditions: 24 h
Method: First, the multiple myeloma cell line MM.1S was treated with varying concentrations (1, 10, and 25 µM) of degraders 10a–d for 6 and 24 h, respectively. HDAC1 and HDAC6 were selected for investigation due to their critical roles in various diseases such as cancer. HDAC1 and HDAC6 protein levels were subsequently evaluated using western blot analysis. […] This limited efficacy could be due to insufficient incubation time of the compounds with MM.1S cells. […] All compounds still exerted no degradation of HDAC6 at different concentrations after 24 h of treatment. However, different from 10b–d, degrader 10a, which contains a hydroxamic acid as ZBG, achieved substantial degradation of HDAC1 with a maximal degradation (D max) value of 74% at 25 μM. Consequently, Compound 10a was selected for further biological evaluations based on the initial screening results.
as §3, §8

[9] = test system: acetylated α‐tubulin (marker of decreased HDAC6 activity); assay: Cellular target engagement: immunoblot of acetylated α-tubulin; type: cell-based; conditions: MM.1S cells, 10 µM, 24 h
Method: as §6, §7

T1 sequence (Q13547 whole entry): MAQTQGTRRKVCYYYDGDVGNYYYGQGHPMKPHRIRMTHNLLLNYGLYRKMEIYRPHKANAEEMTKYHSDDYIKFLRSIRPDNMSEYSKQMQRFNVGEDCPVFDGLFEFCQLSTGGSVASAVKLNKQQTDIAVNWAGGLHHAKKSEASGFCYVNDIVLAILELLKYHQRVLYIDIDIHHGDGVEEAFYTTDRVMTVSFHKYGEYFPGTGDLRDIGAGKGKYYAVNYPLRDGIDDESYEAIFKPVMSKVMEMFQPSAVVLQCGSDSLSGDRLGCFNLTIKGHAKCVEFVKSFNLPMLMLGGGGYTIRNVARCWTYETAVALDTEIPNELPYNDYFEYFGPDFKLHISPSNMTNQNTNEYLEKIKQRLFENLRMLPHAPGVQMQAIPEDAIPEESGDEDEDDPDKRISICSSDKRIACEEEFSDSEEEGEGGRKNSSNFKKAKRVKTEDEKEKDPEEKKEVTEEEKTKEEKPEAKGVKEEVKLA
T4 sequence (Q92769 whole entry): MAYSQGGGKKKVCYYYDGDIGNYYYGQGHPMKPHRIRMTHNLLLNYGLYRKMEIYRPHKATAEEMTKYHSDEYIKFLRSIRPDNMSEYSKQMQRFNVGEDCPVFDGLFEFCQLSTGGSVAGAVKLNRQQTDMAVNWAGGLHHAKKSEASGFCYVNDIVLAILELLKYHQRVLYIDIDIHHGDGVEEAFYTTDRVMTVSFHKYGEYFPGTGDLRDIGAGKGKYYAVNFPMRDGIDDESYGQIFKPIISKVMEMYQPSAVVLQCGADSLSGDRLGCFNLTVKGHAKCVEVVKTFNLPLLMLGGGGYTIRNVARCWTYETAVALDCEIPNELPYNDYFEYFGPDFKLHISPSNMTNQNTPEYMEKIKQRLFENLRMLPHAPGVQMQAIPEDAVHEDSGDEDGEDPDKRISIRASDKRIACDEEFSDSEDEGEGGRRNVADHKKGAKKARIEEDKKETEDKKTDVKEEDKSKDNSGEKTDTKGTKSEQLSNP
T3 sequence (P56524 whole entry): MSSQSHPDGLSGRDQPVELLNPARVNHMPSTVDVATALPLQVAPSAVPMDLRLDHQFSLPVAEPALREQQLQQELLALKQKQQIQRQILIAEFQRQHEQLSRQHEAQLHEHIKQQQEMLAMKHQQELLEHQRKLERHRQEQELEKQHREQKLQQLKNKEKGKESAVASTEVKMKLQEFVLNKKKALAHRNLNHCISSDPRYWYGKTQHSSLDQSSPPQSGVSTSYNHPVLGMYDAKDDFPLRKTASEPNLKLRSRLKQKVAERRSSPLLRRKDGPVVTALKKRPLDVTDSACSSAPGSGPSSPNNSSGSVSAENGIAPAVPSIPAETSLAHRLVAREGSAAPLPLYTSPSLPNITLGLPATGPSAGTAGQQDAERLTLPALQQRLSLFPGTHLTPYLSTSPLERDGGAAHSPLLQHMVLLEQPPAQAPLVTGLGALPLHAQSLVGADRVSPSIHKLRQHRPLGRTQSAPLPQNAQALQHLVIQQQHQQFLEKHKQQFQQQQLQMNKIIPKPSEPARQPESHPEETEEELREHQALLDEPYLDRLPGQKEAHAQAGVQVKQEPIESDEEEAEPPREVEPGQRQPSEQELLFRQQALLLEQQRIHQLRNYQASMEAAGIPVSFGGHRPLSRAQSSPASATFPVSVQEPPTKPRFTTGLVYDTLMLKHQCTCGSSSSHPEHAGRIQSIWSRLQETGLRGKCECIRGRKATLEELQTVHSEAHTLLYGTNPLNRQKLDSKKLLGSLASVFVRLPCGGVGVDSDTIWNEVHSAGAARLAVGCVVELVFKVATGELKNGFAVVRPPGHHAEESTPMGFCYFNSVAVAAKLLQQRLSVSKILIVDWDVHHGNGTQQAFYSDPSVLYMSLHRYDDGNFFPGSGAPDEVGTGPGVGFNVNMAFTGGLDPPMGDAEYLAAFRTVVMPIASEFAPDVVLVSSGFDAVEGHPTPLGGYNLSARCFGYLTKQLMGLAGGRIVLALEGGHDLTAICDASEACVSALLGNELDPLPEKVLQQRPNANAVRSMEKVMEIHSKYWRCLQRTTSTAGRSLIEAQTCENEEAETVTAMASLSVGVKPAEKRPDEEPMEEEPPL
T2 sequence (O15379 whole entry): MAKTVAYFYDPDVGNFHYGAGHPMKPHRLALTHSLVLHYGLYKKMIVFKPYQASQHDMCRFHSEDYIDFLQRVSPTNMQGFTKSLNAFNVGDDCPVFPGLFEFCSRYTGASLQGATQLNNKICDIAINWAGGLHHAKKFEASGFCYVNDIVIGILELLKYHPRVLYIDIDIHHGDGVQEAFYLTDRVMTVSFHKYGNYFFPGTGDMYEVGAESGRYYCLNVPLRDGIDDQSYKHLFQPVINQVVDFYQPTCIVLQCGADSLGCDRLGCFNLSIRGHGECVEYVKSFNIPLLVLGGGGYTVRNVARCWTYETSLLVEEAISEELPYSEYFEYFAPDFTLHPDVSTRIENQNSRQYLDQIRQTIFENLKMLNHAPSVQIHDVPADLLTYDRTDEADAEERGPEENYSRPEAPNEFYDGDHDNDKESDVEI
T6 sequence (O15379 whole entry): as above
T6 sequence (Q9Y618 395-489 partner limits assumed): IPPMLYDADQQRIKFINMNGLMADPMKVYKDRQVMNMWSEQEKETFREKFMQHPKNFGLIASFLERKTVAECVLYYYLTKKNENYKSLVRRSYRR

IC50 (HDAC1 [1]): 17 ± 1 nM
HDAC3 protein levels (HDAC3; 24 h): minimal impact
HDAC4 protein levels (HDAC4; 24 h): minimal impact
IC50 (MM.1S cells [2]; MM.1S cells, CellTiter-Glo, n = 3, mean ± SD): 6480 ± 1180 nM
IC50 (HDAC2 [3]): 88 ± 7 nM
IC50 (Human recombinant HDAC6): 27 ± 8 nM
IC50 [6]: 51 ± 4 nM
Dmax at 25 µM (HDAC2 [7]; MM1.S, MM.1S cells, 25 μM, 24 h, read-out: maximal degradation (Dmax) of HDAC2): 46%
HDAC2 protein levels (HDAC2 [7]; MM.1S cells, 1, 10, 25 μM, 24 h): slightly affected
DC50 (HDAC1 [8]; 0.37 up to 30 μM, western blot, read-out: half-maximal degradation concentration (DC50) for HDAC1): 8800 ± 4400 nM
Dmax at 25 µM (HDAC1 [8]; MM1.S, 25 μM, western blot, read-out: maximal degradation (Dmax) of HDAC1): 74%
Compound: C=CS(=O)(=O)N1CCN(C(=O)Cc2ccc(NC(=O)CCCCCCC(=O)NO)cc2)CC1 [Compound 10a, N ^1‐Hydroxy‐N ^8‐(4‐{2‐oxo‐2‐[4‐(vinylsulfonyl)piperazin‐1‐yl]ethyl}phenyl)octanediamide]
HDAC3 degradation (HDAC3; 6 h): none of the used concentrations resulted in the degradation
HDAC4 degradation (HDAC4; 6 h): none of the used concentrations resulted in the degradation
apoptosis induction: proportions of early and late apoptotic cells (MM.1S cells [4]): markedly increased
effect on histone H3 acetylation compared with vorinostat [5]: markedly lower than that of vorinostat
level of acetylated histone H3 [5]: pronounced upregulation
HDAC2 degradation (HDAC2 [7]; MM.1S cells, 1, 10, 25 μM, 6 h): none of the used concentrations resulted in the degradation
HDAC1 protein levels (HDAC1 [8]; 25 μM, immunoblot): induced a reduction of HDAC1 protein levels
hyperacetylation of α-tubulin compared with vorinostat [9]: comparable to its parent inhibitor, vorinostat
level of acetylated α-tubulin [9]: pronounced upregulation

Compound: O=C(CCCCCCNC(=O)c1cnc(N(c2ccccc2)c2ccccc2)nc1)NO [Ricolinostat]
IC50 (MM.1S cells [2]): 2590 ± 270 nM

IC50 (MM.1S cells [2]): 790 ± 130 nM
Compound: O=C(CCCCCCC(=O)Nc1ccccc1)NO [Vorinostat]
